Source: paper doi:10.1101/2024.08.19.608619, “Discovery of potent SARS-CoV-2 nsp3 macrodomain inhibitors uncovers lack of translation to cellular antiviral response” (bioRxiv, 2024)
In brackets after ≈: the same amount, converted by molar mass. Several values for one entry are separate records, joined by “and”; a condition that tells them apart may be missing. Equal entries are not always repeated. Where two headings read alike, the source gives them in different places.

Experiments:
[1] = system: SARS-CoV-2, isolate USA-WA1/2020; assay: microbe, parasite or virus in culture; assay type: cell-based; conditions: HeLa-ACE2 SARS-CoV-2 antiviral effect without P-gp inhibitor; for perc_max_measured: maximum measured response of dose series; for perc_min_measured: minimum measured response of dose series; for EC50: read-out: ec50; for EC90: read-out: ec90
[2] = system: SARS-CoV-2; assay: Antiviral effect in iPSC-derived pneumocyte system; assay type: cell-based; conditions: iPSC pneumocytes SARS-CoV-2 antiviral effect; for perc_max_measured: maximum measured response of dose series; for perc_min_measured: minimum measured response of dose series
[3] = Hepatic microsomal stability, HLM; assay type: in vitro ADME, human; conditions: In vitro human liver microsomal stability; for perc_remaining_no_cofactor: no cofactor
[4] = Hepatic microsomal stability, MLM; assay type: in vitro ADME
[5] = system: iPSC pneumocytes; assay: iPSC pneumocytes cytotoxicity; assay type: cell-based; conditions: protocol iPSC pneumocytes cytotoxicity; for perc_max_measured: highest measured response of the dose series; for perc_min_measured: lowest measured response of the dose series
Description: Supplement media-1.zip/Cytotoxicity.csv, table | column: cc10; cc50; perc_min_measured; perc_max_measured

[6] = system: HeLa-ACE2 cells; conditions: for perc_max_measured: highest measured response of the dose series; for perc_min_measured: lowest measured response of the dose series
[7] = LogD; conditions: pH 7.4; In vitro LogD
[8] = in vitro; conditions: human, hela-ace2 cells, 50.0
[9] = In vitro kinetic solubility; conditions: In vitro kinetic solubility, ph 7.4
[10] = Permeability Papp (AB) MDR1/MDCKII; conditions: In vitro MDR1-MDCKII permeability; for papp_a_to_b_mean: A to B; for perc_recovery_a_to_b_mean: recovery A to B
[11] = biological target: SARS-CoV-2 nsp3-mac1 (Severe acute respiratory syndrome coronavirus 2, UniProt P0DTD1); assay: biochemical
[12] = In vitro mouse liver microsomal stability
[13] = protocol HeLa-ACE2 cytotoxicity
[14] = HTRF IC50, Figure 4A, racemic mixture
[15] = In vitro mouse liver microsomal stability, no cofactor

SMILES	perc_max_measured [1]	perc_min_measured [1]	EC50 [1]	EC90 [1]	clint [3] [µL/min/mg]	perc_remaining [3] [%]	t_half [3] [min]	perc_remaining_no_cofactor [3] [%]	clint [4, 12] [µL/min/mg]	perc_remaining [4, 12] [%]	t_half [4, 12] [min]	logd [7]	CC50 at 24 h [8] [µM]	solubility_mean [9] [µM]	perc_remaining_no_cofactor [4, 15] [%]	further results
Cn1ncc(-c2cc3c(N[C@@H](c4ccc5c(c4)OCCO5)C(C)(C)C)ncnc3[nH]2)c1C#N (racemic) [ASAP-0008484]	91.316% and 93.387%	1.9% and 1.413%	1.05 µM and 1.12 µM	2.12 µM and 3.3 µM	85.0	22.0	19.6	109.0	199.0	4.0	8.4	2.9	> 20	25 (≈ 11.1 µg/mL)	–	EC50 [2]: 7.67 µM; EC90 [2]: 13.4 µM; perc_max_measured [2]: 131.986%; perc_min_measured [2]: 2.165%; perc_remaining_no_cofactor ([4]; In vitro mouse liver microsomal stability; no cofactor): 100.0%; CC50 [5]: 48.6 µM; cc10 [5]: 41.767 µM; perc_max_measured [5]: 107.062%; perc_min_measured [5]: 63.039%; CC50 [6, 13]: > 20 µM; cc10 [6, 13]: > 20.0 µM; perc_max_measured [6, 13]: 117.871% and 98.808%; perc_min_measured [6, 13]: 61.501% and 55.999%; papp_a_to_b_mean ([10]; mean): 2.79 ×10⁻⁶ cm/s; perc_recovery_a_to_b_mean ([10]; mean): 39.4%
COc1ccc(C(Nc2ncnc3[nH]ccc23)C(C)C)cc1 (centres unmarked) [ASAP-0000752]	–	–	–	–	–	–	–	–	–	–	–	–	–	–	–	IC50 [11, 14]: 7.2 µM
O=C(O)C(Nc1ncnc2[nH]ccc12)c1ccc2c(c1)OCCO2 (centres unmarked) [ASAP-0000789]	–	–	–	–	–	–	–	–	–	–	–	–	–	–	–	IC50 [11, 14]: 8.7 µM
c1nc(NC(c2ccc3c(c2)OCCO3)C2CCC2)c2cc[nH]c2n1 (centres unmarked) [ASAP-0000866]	–	–	–	–	–	–	–	–	–	–	–	–	–	–	–	IC50 [11, 14]: 5.8 µM
FC(F)(F)C(Nc1ncnc2[nH]ccc12)c1ccc2c(c1)OCCO2 (centres unmarked) [ASAP-0000870]	–	–	–	–	–	–	–	–	–	–	–	–	–	–	–	IC50 ([11]; Figure 4A, racemic mixture, read-out: HTRF IC50): 19 µM
CC(C)(C)C(Nc1ncnc2[nH]ccc12)c1ccc2c(c1)OCCO2 (centres unmarked) [ASAP-0008277]	–	–	–	–	–	–	–	–	–	–	–	–	–	–	–	IC50 [11, 14]: 1.1 µM
CC(C)[C@@H](Nc1ncnc2[nH]c(-c3cnn(C)n3)cc12)c1ccc2c(c1)OCCO2 [ASAP-0008469]	101.658% and 92.76%	24.481% and 27.109%	5.33 µM and 6.65 µM	> 20 µM	–	–	–	–	–	–	–	–	> 20	–	–	EC50 [2]: 13.3 µM; EC90 [2]: 25.3 µM; perc_max_measured [2]: 157.709%; perc_min_measured [2]: 4.934%; perc_max_measured [5]: 89.766%; perc_min_measured [5]: 75.657%; CC50 [6]: > 20 µM; cc10 [6]: > 20.0 µM; perc_max_measured [6, 13]: 104.412% and 106.04%; perc_min_measured [6, 13]: 76.407% and 89.613%
CC(C)C(Nc1ncnc2[nH]c(-c3cnn(C)c3)cc12)c1ccc2c(c1)OCCO2 (centres unmarked) [ASAP-0008596]	–	–	–	–	–	–	–	–	–	–	–	–	–	–	–	IC50 ([11]; IC50, nsp3-mac1 activity, Figures 1-3 and text): 0.56 µM
CC(C)[C@@H](Nc1ncnc2[nH]cc(C(=O)NC3CC3)c12)c1ccc2c(c1)S(=O)(=O)CCC2 [ASAP-0011207]	103.36%	37.723%	14.4 µM	> 20 µM	409.0	0.0	4.1	111.0	1740.0	0.0	1.0	3.2	> 20	216 (≈ 98 µg/mL)	102.0	CC50 ([6]; HeLa-ACE2 cytotoxicity): > 20 µM; cc10 ([6]; HeLa-ACE2 cytotoxicity): > 20.0 µM; perc_max_measured ([6]; HeLa-ACE2 cytotoxicity): 109.458%; perc_min_measured ([6]; HeLa-ACE2 cytotoxicity): 97.44%; papp_a_to_b_mean ([10]; mean): 2.97 ×10⁻⁶ cm/s; perc_recovery_a_to_b_mean ([10]; mean): 85.8%
CC(C)[C@@H](Nc1ncnc2[nH]c(-c3ccc4cncn4c3)cc12)c1ccc2c(c1)S(=O)(=O)CCC2 [ASAP-0011215]	92.609%	28.375%	7.12 µM	> 20 µM	210.0	4.0	8.0	97.0	170.0	6.0	9.8	4.0	> 20	14 (≈ 6.81 µg/mL)	87.0	CC50 ([6]; HeLa-ACE2 cytotoxicity): > 20 µM; cc10 ([6]; HeLa-ACE2 cytotoxicity): > 20.0 µM; perc_max_measured ([6]; HeLa-ACE2 cytotoxicity): 108.268%; perc_min_measured ([6]; HeLa-ACE2 cytotoxicity): 81.968%; papp_a_to_b_mean ([10]; no inhibitor): 0.56 ×10⁻⁶ cm/s; perc_recovery_a_to_b_mean ([10]; no inhibitor): 70.8%
CC(C)[C@@H](Nc1ncnc2[nH]c(-c3cnn(CC(N)=O)c3)cc12)c1ccc2c(c1)S(=O)(=O)CCC2 [ASAP-0011432]	127.59%	107.301%	> 20 µM	> 20 µM	115.0	15.0	14.5	103.0	96.0	20.0	17.4	2.0	> 20	335 (≈ 165 µg/mL)	111.0	CC50 [6, 13]: > 20 µM; cc10 [6, 13]: > 20.0 µM; perc_max_measured [6, 13]: 97.628%; perc_min_measured [6, 13]: 83.24%; papp_a_to_b_mean ([10]; mean): 0.719 ×10⁻⁶ cm/s; perc_recovery_a_to_b_mean ([10]; mean): 76.6%
CC(C)[C@@H](Nc1ncnc2[nH]ccc12)c1ccc2c(c1)S(=O)(=O)CCO2 [ASAP-0012318]	99.283%	83.757%	> 20 µM	> 20 µM	18.0	74.0	91.3	92.0	69.0	33.0	24.2	2.6	> 20	372 (≈ 139 µg/mL)	111.0	CC50 ([6]; HeLa-ACE2 cytotoxicity): > 20 µM; cc10 ([6]; HeLa-ACE2 cytotoxicity): > 20.0 µM; perc_max_measured ([6]; HeLa-ACE2 cytotoxicity): 106.826%; perc_min_measured ([6]; HeLa-ACE2 cytotoxicity): 90.526%; papp_a_to_b_mean ([10]; no inhibitor): 4.4 ×10⁻⁶ cm/s; perc_recovery_a_to_b_mean ([10]; no inhibitor): 69.0%
CC(C)[C@@H](Nc1ncnc2[nH]c(-c3cncc(S(C)(=O)=O)c3)cc12)c1ccc2c(c1)S(=O)(=O)CCC2 [ASAP-0012320]	119.816%	96.629%	> 20 µM	> 20 µM	635.0	1.0	2.6	104.0	272.0	1.0	6.1	3.1	> 20	31 (≈ 16.3 µg/mL)	112.0	CC50 ([6]; HeLa-ACE2 cytotoxicity): > 20 µM; cc10 ([6]; HeLa-ACE2 cytotoxicity): > 20.0 µM; perc_max_measured ([6]; HeLa-ACE2 cytotoxicity): 98.548%; perc_min_measured ([6]; HeLa-ACE2 cytotoxicity): 93.918%; papp_a_to_b_mean ([10]; no inhibitor): 0.491 ×10⁻⁶ cm/s; perc_recovery_a_to_b_mean ([10]; no inhibitor): 66.6%
CNC(=O)c1cccc(-c2cc3c(N[C@@H](c4ccc5c(c4)S(=O)(=O)CCC5)C(C)C)ncnc3[nH]2)c1 [ASAP-0012344]	108.746%	56.34%	> 20 µM	> 20 µM	455.0	0.0	3.7	93.0	882.0	1.0	1.9	3.7	> 20	15 (≈ 7.55 µg/mL)	101.0	CC50 [6, 13]: > 20 µM; cc10 [6, 13]: > 20.0 µM; perc_max_measured [6, 13]: 109.077%; perc_min_measured [6, 13]: 84.376%; papp_a_to_b_mean ([10]; no inhibitor): 0.627 ×10⁻⁶ cm/s; perc_recovery_a_to_b_mean ([10]; no inhibitor): 67.1%
